Measurements as given in paper PMC8876525 (Viruses, 2022).
Marks after values point to notes of the source that are not given here.

What was measured:
[1] = test system: HBV encapsidated pgRNA; test: Encapsidated pgRNA and total HBV RNAs (Northern blot); type: cell-based; conditions: HepAD38 cells, BAY 41-4109 2 μM; for Effect on intracellular total HBV RNAs: C-18, C-39 5 μM; for Effect on HBV encapsidated pgRNA: C-18, C-39, C-19 5 μM, ETV 25 nM
[2] = test system: HBV; test: HepG2-NTCP de novo HBV infection model (viral markers, cccDNA Taq-Man qPCR); type: cell-based; conditions: HepG2-NTCP cells, 5 μM
[3] = molecular target: HBc (Hepatitis B virus genotype D subtype ayw, UniProt P03146); test: Immunofluorescence of HBV core protein in HepAD38 cells; type: cell-based; conditions: 3 days, BAY 41-4109 2 μM; for HBc localisation / aggregation: C-18 and C-39 5 μM; for HBc level by immunofluorescence: C-39 5 μM
Sequence of HBc (P03146 whole entry): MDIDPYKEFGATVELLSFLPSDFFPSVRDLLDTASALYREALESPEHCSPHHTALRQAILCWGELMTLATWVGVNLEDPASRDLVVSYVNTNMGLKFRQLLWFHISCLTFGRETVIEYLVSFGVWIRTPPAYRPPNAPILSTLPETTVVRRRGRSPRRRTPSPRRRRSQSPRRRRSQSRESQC

[4] = test system: HBeAg; test: Secreted HBeAg ELISA; type: cell-based, HBV; conditions: 6 days
[5] = test system: HBV core DNA; test: Intracellular HBV core DNA (qPCR) and replicative intermediates (Southern blot); type: cell-based; conditions: 6 days; for Effect on intracellular HBV core DNA: qPCR
[6] = test system: HBV; test: Secreted HBV DNA in HepG2-HBV1.3 culture supernatant (RT-qPCR); type: cell-based; conditions: HepG2-HBV1.3 cells; for EC50: Hepatitis B virus, 144 h, 6 days
[7] = molecular target: HBV capsid (Hepatitis B virus genotype D subtype ayw, UniProt P03146); test: Intracellular HBV capsid formation; type: cell-based; conditions: 6 days; for Effect on intracellular HBV capsid formation at single concentration: HepAD38 or HepG2-HBV1.3 cells, compounds 10 μM, ETV 25 nM, BAY 41-4109 2 μM
Sequence of HBV capsid (P03146 whole entry): as above

[8] = test system: HBsAg; test: Secreted HBsAg ELISA; type: cell-based, HBV; conditions: 6 days, ETV 25 nM, BAY 41-4109 2 μM
[9] = CCK-8 cytotoxicity assay in HepAD38 cells; type: cell-based, Human; conditions: human, 6 days
[10] = test system: HBV; test: Secreted HBV DNA in HepAD38 culture supernatant (RT-qPCR); type: cell-based; conditions: for EC50: read-out: EC50 (secreted HBV DNA); for Residual HBV DNA level (secreted) relative to DMSO control: 20 μM compound
[11] = CCK-8 cytotoxicity assay in HepG2-HBV1.3 (HepG2) cells; type: cell-based; conditions: human
[12] = test system: HBV 3.5 kb RNA; test: Intracellular HBV 3.5 kb RNA (RT-qPCR); type: cell-based; conditions: 6 days
[13] = test system: HepAD38 cells; test: CCK-8 cytotoxicity assay in HepAD38 cells; type: cell-based, Human
[14] = test system: ETV-resistant mutant (rtL180M/S202G/M204V) HBV; test: Drug susceptibility assay, HepG2 transfected with ETV-resistant mutant; type: cell-based; conditions: Hepatitis B virus, HepG2, 144 h, read-out: viral replication EC50
[15] = test system: wild-type HBV; test: Drug susceptibility assay, HepG2 transfected with HBV1.1-WT; type: cell-based; conditions: Hepatitis B virus, 144 h; wild-type HBV in HepG2, secreted HBV DNA, 6 days; read-out: viral replication EC50
[16] = molecular target: Cp149 protein (Hepatitis B virus genotype D subtype ayw, UniProt P03146); test: Cp149 capsid assembly in vitro, transmission electron microscopy; type: biochemical, HBV; conditions: Cp149 5 μM dimer, 300 mM NaCl, 150 mM HEPES pH 7.5; BAY 41-4109 5 μM 3 days, C-39 20 μM 3 and 7 days
Sequence of Cp149 protein (P03146 1-149): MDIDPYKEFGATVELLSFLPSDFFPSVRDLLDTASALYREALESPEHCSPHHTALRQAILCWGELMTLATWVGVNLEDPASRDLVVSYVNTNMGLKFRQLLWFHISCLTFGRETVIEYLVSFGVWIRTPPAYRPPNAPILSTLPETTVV

[17] = Hepatitis B virus, 144 h, HepAD38 cells, 6 days

SMILES	Effect on intracellular total HBV RNAs [1]	Effect on HBV encapsidated pgRNA [1]	HBc localisation / aggregation [3]	Effect on intracellular HBV capsid formation at single concentration [7]	Effect on secreted HBsAg ([8]; HepAD38 cells)	CC50 at 6 days [9] [nM]	SI (CC50/EC50) ([10]; HepAD38 cells)	EC50 [10, 17] [nM]	Cytotoxicity in words [13]	Effect on secreted HBsAg ([8]; HepG2-HBV1.3 cells)	other results
Cc1cc2c(cc1S(=O)(=O)N1CCCC(C(=O)Nc3ccc(F)c(Cl)c3)C1)OC(C)C(=O)N2 (stereo not drawn) [Compound C-18]	slight decrease	markedly downregulated	induced punctate HBc aggregation within the nucleus	strongly inhibited	no impact on HBsAg	14800 ± 700	131.2	110 ± 30			Effect on cccDNA formation, treatment together with viral inoculum (day 0) [2]: prevented the formation of cccDNA during the early postentry step; Effect on pre-established cccDNA, treatment 4 days after infection (day 4) [2]: minor effect; Effect on secreted HBeAg ([4]; HepAD38 cells): reduced the HBeAg level; Effect on secreted HBeAg ([4]; HepG2-HBV1.3 cells): downregulated; Effect on HBV replicative intermediates ([5]; HepAD38 cells, Southern blot): notably downregulated; Effect on intracellular HBV core DNA ([5]; HepAD38 cells): dramatic decrease; Effect on intracellular HBV core DNA ([5]; HepG2-HBV1.3 cells): downregulated; SI (CC50/EC50) [6]: 147.1; EC50 [6]: 140 nM; Effect on intracellular HBV capsid formation, concentration series ([7]; HepG2-HBV1.3 cells): downregulated; CC50 at 6 days [11]: 20600 nM; Effect on intracellular HBV 3.5 kb RNA ([12]; HepAD38 cells): dramatic decrease; Effect on intracellular HBV 3.5 kb RNA ([12]; HepG2-HBV1.3 cells): downregulated
COc1cccc(-c2noc([C@@H]3CCCN3C(=O)Nc3ccc(F)c(Cl)c3)n2)c1 [Compound C-9]				did not affect the capsid formation		26600 ± 2000	23.4	1140 ± 230			
O=C(Nc1ccc(F)c(Cl)c1)C1CCCN(S(=O)(=O)c2c[nH]c(C(=O)N3CCCC3)c2)C1 (stereo not drawn) [Compound C-40]						12600 ± 700	32.3 ^a	390 ± 10	medium cytotoxicity		
CCOC(=O)c1c(C)[nH]c(C)c1S(=O)(=O)N1CCCC(C(=O)Nc2ccc(F)c(Cl)c2)C1 (stereo not drawn) [Compound C-37]						11000 ± 700	31.3 ^a	350 ± 50			
CCOC(=O)c1c(S(=O)(=O)N2CCCC(C(=O)Nc3ccc(F)c(Cl)c3)C2)c(C)n(C)c1C (stereo not drawn) [Compound C-39]	slight decrease	markedly downregulated	induced punctate HBc aggregation within the nucleus	dramatically inhibited capsid formation	no impact on HBsAg production	> 100000		56 ± 13	no obvious toxicity	no impact on HBsAg production	Effect on cccDNA formation, treatment together with viral inoculum (day 0) [2]: prevented the formation of cccDNA during the early postentry step; Effect on pre-established cccDNA, treatment 4 days after infection (day 4) [2]: minor effect; HBc level by immunofluorescence [3]: significantly decreased the HBc level; Effect on secreted HBeAg ([4]; HepAD38 cells): markedly reduced; Effect on secreted HBeAg ([4]; HepG2-HBV1.3 cells): markedly reduced; Effect on intracellular HBV core DNA ([5]; HepAD38 cells): markedly reduced; Effect on intracellular HBV core DNA ([5]; HepG2-HBV1.3 cells): markedly reduced; EC50 [14]: 84 nM; EC50 [6]: 75 ± 16 nM; EC50 [15]: 78 nM; HBV DNA secretion and intracellular HBV DNA in combination with ETV vs ETV alone ([10]; HepAD38 cells, 5 nM ETV together with C-39 0-10 μM): further inhibition; Morphology of assembled Cp149 particles (TEM) [16]: effectively accelerated the formation of capsid-like particles with time; CC50 at 6 days [11]: > 100000 nM; Effect on intracellular HBV 3.5 kb RNA ([12]; HepAD38 cells): markedly reduced; Effect on intracellular HBV 3.5 kb RNA ([12]; HepG2-HBV1.3 cells): markedly reduced
COC(=O)C1=C(C)NC(c2ncc(F)cc2F)=N[C@H]1c1ccc(F)cc1Cl [BAY 41-4109, reference compound]	slight decrease	markedly downregulated	induced punctate HBc aggregation within the nucleus	dramatically inhibited capsid formation	no impact on HBsAg production					no impact on HBsAg production	HBc level by immunofluorescence [3]: significantly decreased the HBc level; EC50 ([10]; HepAD38 cells, 6 days): 67 ± 10 nM; Morphology of assembled Cp149 particles (TEM) [16]: large irregular particles
Cc1onc(C(=O)Nc2ccc(F)c(F)c2)c1COc1cccc(C(F)(F)F)c1 [Compound C-1]											Residual HBV DNA level (secreted) relative to DMSO control ([10]; HepAD38 cells): 62%
O=C(Nc1ccc(F)c(F)c1)c1cc2nccc(-c3cccs3)n2n1 [Compound C-2]											Residual HBV DNA level (secreted) relative to DMSO control ([10]; HepAD38 cells): 44%
Cc1cc2c(cc1S(=O)(=O)N1CCCC(C(=O)Nc3ccc(F)c(Cl)c3)C1)OCC(=O)N2 (stereo not drawn) [Compound C-29]						18200 ± 2200	14.1 ^a	1290 ± 10	medium cytotoxicity		
C=C1[C@H](CO)[C@@H](O)C[C@@H]1n1cnc2c(=O)[nH]c(N)nc21 [ETV, Entecavir, reference compound]		upregulated		much less or no inhibition effects	no impact on HBsAg production					no impact on HBsAg production	EC50 [14]: 6.1 nM; EC50 [15]: 3.2 nM; EC50 ([10]; Hepatitis B virus, HePAD38, 144 h): 3 ± 1 nM
